# Measured values published in publication PMC2409895, “Antitumour efficacy of VEGFR2 tyrosine kinase inhibitor correlates with expression of VEGF and its receptor VEGFR2 in tumour models” (British Journal of Cancer, 2004).
# How the values were obtained:
# human VEGFR2 kinase = molecular target: T1, human VEGFR2 kinase (Homo sapiens, UniProt P35968); assay: VEGFR2 kinase assay (HTRF); type: biochemical; settings: Table 1
# T1 construct: GST-fusion protein encoding the catalytic carboxyl-terminus of human VEGFR kinase 1, 2, or 3; made in house; host or cells: baculovirus expression system
# Procedure: (§1) Vascular endothelial growth factor receptor kinase assays were carried out in a homogenous time-resolved fluorescence (HTRF) format in 384-well microtitre plates using a purified, baculovirus-expressed GST-fusion protein encoding the catalytic carboxyl-terminus of human VEGFR kinase 1, 2, or 3. Reactions were initiated by the addition of 10 μl of activated VEGFR kinase (1 nM, 0.1 M HEPES pH 7.5, 0.1 mg ml^−1 BSA, and 0.30 mM DTT) to 10 μl of substrate (360 nM biotin-aminohexyl-EEEEYFELVAKKKK-NH2 peptide, 75 μM ATP, 10 mM MgCl2) and 1 μl of small molecule inhibitor at various concentrations. Plates were incubated at room temperature for 60 min, and the reaction was stopped by the addition of 20 μl 100 mM EDTA. Homogenous time-resolved fluorescence reagents (20 μl 15 nM streptavidin-linked allophycocyanin, 1 nM europium-labelled anti-phosphotyrosine antibody in 0.1 M HEPES, pH 7.5, 0.1 mg ml^−1 BSA) were added and plates were incubated for a minimum of 10 min. The fluorescence at 665 nm was measured with a Victor plate reader (Wallac, Shelton, CT, USA) using a time delay of 50 μs. […] Data were fitted with a curve described by: y=((Vmax × x)/(K+x)+Y2), where Vmax is the upper asymptote, Y2 is the Y intercept, and K is the IC50.
# human VEGFR kinase 3 = molecular target: T2, human VEGFR kinase 3 (Homo sapiens, UniProt P35916); assay: VEGFR3 kinase assay (HTRF); type: biochemical
# T2 construct: GST-fusion protein encoding the catalytic carboxyl-terminus of human VEGFR kinase 1, 2, or 3; made in house; host or cells: baculovirus expression system
# Procedure: as §1
# human VEGFR kinase 1 = molecular target: T3, human VEGFR kinase 1 (Homo sapiens, UniProt P17948); assay: VEGFR1 kinase assay (HTRF); type: biochemical
# T3 construct: GST-fusion protein encoding the catalytic carboxyl-terminus of human VEGFR kinase 1, 2, or 3; made in house; host or cells: baculovirus expression system
# T3 sequence (P17948 827-1158 limits assumed): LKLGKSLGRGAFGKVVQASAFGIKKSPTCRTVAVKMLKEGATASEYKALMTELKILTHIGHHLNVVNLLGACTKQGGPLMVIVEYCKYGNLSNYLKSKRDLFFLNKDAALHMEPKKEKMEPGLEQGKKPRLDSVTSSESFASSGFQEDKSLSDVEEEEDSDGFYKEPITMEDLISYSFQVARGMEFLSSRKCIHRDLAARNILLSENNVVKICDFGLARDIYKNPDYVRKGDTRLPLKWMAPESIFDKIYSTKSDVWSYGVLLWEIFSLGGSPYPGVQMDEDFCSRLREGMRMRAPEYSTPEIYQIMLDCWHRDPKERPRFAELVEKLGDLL
# Procedure: as §1
# SRC = molecular target: T4, SRC (Homo sapiens, UniProt P12931); assay: SRC kinase assay (HTRF); type: biochemical
# T4 construct: Each kinase assay was conducted using purified recombinant catalytic domain of the enzyme
# Procedure: (§2) Inhibition of several other kinases by small molecules was also determined. Each kinase assay was conducted using purified recombinant catalytic domain of the enzyme. The concentration of ATP and kinase-specific biotinylated peptide in each assay was below the apparent Km of the respective substrate. Inhibition of c-Fms, SRC, and Tie-2 was evaluated by an HTRF format and the inhibition of CDK2, CDK4, EGFR, ErbB2, and Eph-B4 was detected by scintillation proximity assay.
# Eph-B4 = molecular target: T5, Eph-B4 (Homo sapiens, UniProt P54760); assay: Eph-B4 kinase assay (scintillation proximity); type: biochemical
# T5 construct: Each kinase assay was conducted using purified recombinant catalytic domain of the enzyme
# T5 sequence (P54760 615-899 limits assumed): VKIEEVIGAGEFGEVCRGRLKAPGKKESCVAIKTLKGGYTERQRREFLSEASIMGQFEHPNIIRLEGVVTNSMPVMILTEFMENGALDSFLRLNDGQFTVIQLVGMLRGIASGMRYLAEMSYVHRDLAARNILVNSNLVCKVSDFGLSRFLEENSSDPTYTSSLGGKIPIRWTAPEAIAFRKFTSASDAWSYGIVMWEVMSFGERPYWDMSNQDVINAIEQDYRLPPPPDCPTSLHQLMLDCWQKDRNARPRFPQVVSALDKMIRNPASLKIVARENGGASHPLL
# Procedure: as §2
# ErbB2 = molecular target: T6, ErbB2 (Homo sapiens, UniProt P04626); assay: ErbB2 kinase assay (scintillation proximity); type: biochemical
# T6 construct: Each kinase assay was conducted using purified recombinant catalytic domain of the enzyme
# Procedure: as §2
# CDK2 = molecular target: T7, CDK2 (Homo sapiens, UniProt P24941); assay: CDK2 kinase assay (scintillation proximity); type: biochemical
# T7 construct: Each kinase assay was conducted using purified recombinant catalytic domain of the enzyme
# Procedure: as §2
# HN5 xenograft = assay: HN5 tumour xenograft growth inhibition; type: in vivo, nude mice; settings: for % Inhibition of tumour growth: vs vehicle
# Procedure: (§3) Tumours were initiated by injection of tumour cell suspension subcutaneously in 8–12-week-old nude mice, except PC3 tumours that were grown in SCID mice (Charles River Laboratories, Wilmington, MA, USA). When tumours reached a volume of 100–200 mm^3, mice were randomised into groups of eight prior to treatment with VEGFR kinase inhibitors. Animals were treated with kinase inhibitors (10, 30, or 100 mg kg^−1) or vehicle (0.5% hydroxypropyl methyl cellulose, 0.1% Tween 80 in sterile water), administered once or twice daily by oral gavage for 2–3 weeks (till the mean tumour volume reached 1000–1500 mm^3). Tumour volume was measured twice weekly by calipers, using the formula (length × width × width × 0.5), where length was the longest diameter across the tumour, and width was the corresponding perpendicular. Tumour growth inhibition was calculated by change in the slopes of tumour growth for control and treated tumours. The oral dose of GW654652 producing 50% inhibition of tumour growth (ED50, mg kg^−1) was estimated by a programme that performed a weighted nonlinear regression analysis of data using the equation: y=Vmax(1−(x/(K+x))), where K is equal to ED50. All animal studies were carried out with the appropriate institutional ethical committee approval and they met the standards of both the US federal regulations and those required by the UKCCCR guidelines ([Workman et al, 1998]).
# A375P xenograft = assay: A375P tumour xenograft growth inhibition; type: in vivo, nude mice; settings: for % Inhibition of tumour growth: vs vehicle
# Procedure: as §3
# Pharmacokinetics in mice = type: in vivo, mouse; settings: for free Cmax: mice, based on 99% protein binding and total plasma concentration
# Pharmacokinetics in dog = type: in vivo
# Protein binding = type: in vitro ADME; settings: mouse, plasma; used to calculate free Cmax in mice
# [1] = ratio of IC50 of the kinase to IC50 vs VEGFR-2
# T4 sequence (P12931 270-523 limits assumed, species assumed): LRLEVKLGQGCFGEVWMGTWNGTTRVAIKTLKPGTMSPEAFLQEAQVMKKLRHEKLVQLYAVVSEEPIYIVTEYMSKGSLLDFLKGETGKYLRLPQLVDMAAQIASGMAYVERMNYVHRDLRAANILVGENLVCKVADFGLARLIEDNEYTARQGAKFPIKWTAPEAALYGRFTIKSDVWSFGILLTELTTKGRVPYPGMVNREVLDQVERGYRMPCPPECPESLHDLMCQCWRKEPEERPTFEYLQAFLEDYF
# T6 sequence (P04626 720-987 limits assumed, species assumed): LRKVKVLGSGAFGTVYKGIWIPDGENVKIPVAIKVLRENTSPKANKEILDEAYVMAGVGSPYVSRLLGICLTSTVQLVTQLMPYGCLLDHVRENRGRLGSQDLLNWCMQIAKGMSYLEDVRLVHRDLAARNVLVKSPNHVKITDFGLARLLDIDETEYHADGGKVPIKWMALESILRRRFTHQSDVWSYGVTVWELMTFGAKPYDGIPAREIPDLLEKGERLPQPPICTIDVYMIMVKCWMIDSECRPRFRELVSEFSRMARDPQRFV
# T2 sequence (P35916 845-1173 limits assumed): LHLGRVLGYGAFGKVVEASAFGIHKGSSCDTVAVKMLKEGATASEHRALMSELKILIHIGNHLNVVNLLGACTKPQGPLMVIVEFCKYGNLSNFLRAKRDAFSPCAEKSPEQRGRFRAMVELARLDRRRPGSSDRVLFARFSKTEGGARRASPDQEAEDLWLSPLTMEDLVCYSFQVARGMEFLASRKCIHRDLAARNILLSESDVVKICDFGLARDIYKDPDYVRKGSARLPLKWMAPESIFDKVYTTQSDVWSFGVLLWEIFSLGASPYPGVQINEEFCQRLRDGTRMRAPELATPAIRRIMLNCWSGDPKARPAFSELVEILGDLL
# T1 sequence (P35968 834-1162 limits assumed): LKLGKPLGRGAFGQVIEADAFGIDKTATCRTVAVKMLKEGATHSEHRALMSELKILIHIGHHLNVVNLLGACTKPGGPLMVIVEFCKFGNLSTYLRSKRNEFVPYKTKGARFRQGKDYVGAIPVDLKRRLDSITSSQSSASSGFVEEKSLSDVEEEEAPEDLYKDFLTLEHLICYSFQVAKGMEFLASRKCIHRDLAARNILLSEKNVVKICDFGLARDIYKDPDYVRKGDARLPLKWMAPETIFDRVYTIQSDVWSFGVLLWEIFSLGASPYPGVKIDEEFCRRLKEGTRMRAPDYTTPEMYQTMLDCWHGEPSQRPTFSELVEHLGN
smiles,measurement,setting,value
"CCS(=O)(=O)c1ccc(OC)c(Nc2nccc(N(C)c3ccc4c(C)n[nH]c4c3)n2)c1 [GW654652, N^2-[5-(ethylsulphonyl)-2-methoxyphenyl]-N^4-methyl-N^4-(3-methyl-1H-indazol-6-yl)pyrimidine-2,4-diamine]",IC50,human VEGFR2 kinase,2.3 nM
same,IC50,human VEGFR kinase 3; mean±s.e.,2.5 ± 0.5 nM
same,"Fold selectivity vs VEGFR-2, VEGFR-3",human VEGFR kinase 3; [1],1.1
same,IC50,human VEGFR kinase 1; mean±s.e.,12 ± 2.6 nM
same,"Fold selectivity vs VEGFR-2, VEGFR-1",human VEGFR kinase 1; [1],5.3
same,IC50,SRC; mean±s.e.,350 ± 240 nM
same,"Fold selectivity vs VEGFR-2, SRC",SRC; [1],156
same,IC50,Eph-B4; mean±s.e.,460 ± 30 nM
same,"Fold selectivity vs VEGFR-2, Eph-B4",Eph-B4; [1],204
same,IC50,ErbB2; mean±s.e.,11500 ± 2740 nM
same,"Fold selectivity vs VEGFR-2, ErbB2",ErbB2; [1],5125
same,IC50,CDK2,> 20000 nM
same,"Fold selectivity vs VEGFR-2, CDK2",CDK2; [1],>8800
same,% Inhibition of tumour growth,"HN5 xenograft; HN5, 10 mg kg^−1 oral once daily",24%
same,% Inhibition of tumour growth,"HN5 xenograft; HN5, 30 mg kg^−1 oral once daily",46%
same,% Inhibition of tumour growth,"HN5 xenograft; HN5, 100 mg kg^−1 oral once daily",83%
same,ED50,"HN5 xenograft; HN5, oral dose producing 50% inhibition of tumour growth",28 ± 10 mg/kg/day
same,% Inhibition of tumour growth,A375P xenograft; 30 mg kg^−1 oral once daily,14%
same,% Inhibition of tumour growth,A375P xenograft; 100 mg kg^−1 oral once daily,49%
same,ED50,A375P xenograft; oral dose producing 50% inhibition of tumour growth,114 ± 54 mg/kg/day
same,free Cmax,Pharmacokinetics in mice; oral 10 mg kg^−1,60 nM
same,free Cmax,Pharmacokinetics in mice; oral 30 mg kg^−1,230 nM
same,free Cmax,Pharmacokinetics in mice; oral 100 mg kg^−1,1380 nM
same,pharmacokinetic profile,Pharmacokinetics in mice; mouse,good pharmacokinetic profile
same,pharmacokinetic profile,Pharmacokinetics in dog,good pharmacokinetic profile
same,fraction unbound,Protein binding,0.01
